Measured values published in patent US20120156704A1, “IN VITRO METHOD FOR DETECTING GP91PHOX AS A MARKER OF OXIDATIVE STRESS” (BIOS INTERNATIONAL S.R.L., priority 2009, published 2012).

Tests used:
platelet NADPH oxidase = assay: Platelet NADPH oxidase activation: ROS production in AA-stimulated platelets by cytofluorimetry; type: cell-based, human; conditions: AA 0.5 mM
Description: To obtain platelet rich plasma (PRP) from HC and HS patients, samples were centrifuged 15 min at 180 g. To avoid leukocyte contamination, only the top 75% of the PRP was collected. Platelet pellet was suspended in HEPES buffer, pH 7.4 (2×10^8 platelets/mL, unless otherwise noted) and processed differently according to the type of experiment to be carried out.
To test NADPH oxidase activity, the levels of ROS in platelets from 5 human healthy subjects were measured by cytofluorimetry in the presence and in the absence of specific NADPH oxidase inhibitors, such as apocynin and the gp91^phox blocking peptide gp91ds-tat. Platelets were incubated with 2′,7′-dichlorofluorescin diacetate […] for 15 minutes at 37° C. After incubation, 100 μl of the sample was treated with arachidonic acid (AA, 0.5 mM) in presence or less of apocynin (100 μM) or the gp91^phox specific blocking peptide (gp91ds-tat, 50 μM). Then 10 μl of each sample was diluted with 1 ml of PBS and analyzed by flow cytometry. Basal OFR level in resting platelets was expressed as mean fluorescence (MF), AA-induced OFR production was expressed as stimulation index (S.I.=mean level of fluorescence in AA-stimulated platelet/mean level of fluorescence in unstimulated platelets) (Pignatelli P et al. Blood (1998) 95:484-490.

platelets = assay: sgp91phox in supernatant of platelets by ELISA with the monoclonal antibody of the invention; type: cell-based, human
[1] = test system: polymorphonuclear leukocytes (PMN); assay: sgp91phox in supernatant of PMN by ELISA; type: cell-based, human; conditions: PMA 10 μM; unstimulated 1.53±0.66
Description: Polymorphonuclear leukocytes (PMN) were isolated from freshly taken EDTA-blood from healthy volunteers (n=5, healthy subjects) by dextran enhanced sedimentation of red blood cells, Ficoll-Histopaque density centrifugation, lysis of remaining erythrocytes with distilled water and washing of cells with Hank's balanced salt solution (HBSS) in the absence of any divalent cations. Finally, the cell pellet was suspended in 1 ml of HBSS and stimulated with or without 10 μM of phorbol 12-myristate 13-acetate (PMA). To evaluate sgp91phox in PMN the supernatant was analyzed by ELISA method as above reported.
(§1) To evaluate the source of sgp91phox we isolated platelets, PMN and lymphocytes/monocytes from the same blood sample.

platelet gp91phox = assay: gp91phox expression on platelets by flow cytometry in the clinical study; type: in vivo, human; conditions: after 30 days of treatment
Description: To evaluate gp91^phox expression on platelets, 50 μl of stabilized whole blood (see above) were incubated for 30 minutes with 5 μl of monoclonal antibody against gp91^phox (20 μg/ml; Santa Cruz), and 5 μl of PE-conjugated monoclonal antibody against CD61 (Coulter) (20 μg/ml), respectively, as described in Martino F. et al., PEDIATRICS (2008), supra. The samples incubated with the monoclonal antibody against gp91^phox were then incubated with a secondary IgG FITC-conjugated antibody against mouse. After incubation, 1 ml of 1× PBS was added to proceed with the cytofluorimetric analysis.
Isotypic controls were carried out by preparing a sample with a non-specific anti-mouse IgG-FITC e IgG1-PE with the same ratio f/p for FITC e PE. The adequate concentration of the monoclonal antibodies used was determined in preliminary tests (not shown).
All the samples were analyzed within 15 minutes from dilution. FITC fluorescence was detected with an Epics XL-MCL cytometer (Coulter, Milan Italy) at 525 nm, while PE fluorescence was detected at 575 nm. All the parameters were grouped with a 4-decade logarithmic amplification.
Spectral overlap was balanced by fluorescence compensation, as defined in preliminary tests. […] Platelets and platelet-platelet aggregates were identified by logical gating according to their CD61 phycoerythrin fluorescence and forward scatter characteristics. […]

[2] = test system: hypercholesterolemic patients; conditions: group B, diet + atorvastatin 10 mg/day, end of 30 days, p<0.001
sgp91phox = sgp91phox in sera of the clinical study by the ELISA assay of the invention; type: in vivo, human; conditions: group B
Description: The samples tested were sera from the same sampling of the clinical study of Example 2, stored frozen at −80° C. up to the use.
The proprietary primary policlonal antibody against SEQ ID NO 1 and the primary monoclonal antibody against SEQ ID NO 3 (i.e., the proprietary antibody of the present invention from the hybridoma deposited at ATCC on Jun. 10, 2010 under No. SD-6311) already described above were diluted 1:100 with coating buffer (catalog. C3041, Sigma Chemicals) and 100 μl of this primary antibody solution were placed in 96-well ELISA plates for 1 h at room temperature (RT). After incubation the content of each well in the plates was removed and the wells were washed three times with washing buffer (Tris-buffered saline 50 mM, pH 8.0, Tween 20; catalog. T9039, Sigma Chemicals).
Subsequently, 200 μl of saturation buffer containing 1% BSA (catalog T6789, Sigma Chemicals) were added to the wells for 30 minutes at RT. The wells were then washed three times with the washing buffer, as above.
100 μl of standard or of sample to be assayed were then added to the wells and the incubation was carried out for 1 h at RT.
A standard curve was obtained by using increasing concentrations of the gp91^phox peptide of SEQ ID NO 1 or of the peptide of SEQ ID NO 3 (i.e., 64 pg/ml; 32 pg/ml; 16 pg/ml; 8 pg/ml) obtained by diluting the peptides in buffer, and incubated for 1 h see FIG. 4, panel A and panel B.
100 μl of a secondary goat-anti-rabbit IgG-HRP antibody (Santa Cruz, catalog sc2004) or of a secondary goat anti-mouse IgG-HRP antibody (Santa Cruz, catalog sc 2060) diluted 1:100 with coating buffer, were then incubated at RT for 1 h.
After aspirating the contents of the wells and washing three times with washing buffer, as described above, 100 μl of substrate (Santa Cruz, catalog SK-4400) were added to the wells for 30 minutes at RT. At the end of the incubation, 100 μl of H2SO4 2M (Merck, catalog 30148297) were also added to the wells. Subsequently, reading of the developed color was carried out with a spectrophotometer at 450 nm.
The final concentration of the samples were calculated by using the proper standard curve obtained with a gp91^phox peptide, as described above.

lymphocytes/monocytes = assay: sgp91phox in supernatant of lymphocytes/monocytes by ELISA; type: cell-based, human; conditions: LPS 100 ng/ml; unstimulated 1.11±0.55
Description: Blood samples were collected in heparinized tubes (10 IU/ml). Lynphocytes/Monocyte were isolated after centrifugation of the blood from healthy volunteers (n=5, healthy subjects) with a polysucrose-sodium diatrizoate solution, 1.077 g/ml density and 280 mOsm osmolarity (Lymphoprep; Nycomed, Oslo, Norway) at 800 g at 20° C. The Lynphocytes/Monocyte cell layer was collected and the cells were thus washed two times in a solution of cold phosphate-buffered saline (pH 7.2), supplemented with 1% fetal calf serum and 2 mmol/l EDTA (Sigma-Aldrich, Milano, Italy). The cell suspension was stimulated with or without lipopolysaccharide (100 ng/ml) (LPS), sgp91 content in the supernatant was evaluated by ELISA method as above reported.
as §1

[3] = 30 days atorvastatin vs baseline

Compound: COc1cc(C(C)=O)ccc1O [apocynin]
- effect on AA-induced ROS production in platelets (platelet NADPH oxidase; apocynin 100 μM, gp91ds-tat 50 μM): inhibited
- levels of sgp91phox shed in the cell medium of AA-activated platelets (platelets; specific NADPH oxidase inhibitors, ELISA of supernatant): decrease

Compound: CCCCC/C=C\C/C=C\C/C=C\C/C=C\CCCC(=O)O [AA, arachidonic acid]
- ROS production after platelet activation (platelet NADPH oxidase): increase
- sgp91phox in supernatant of stimulated platelets (platelets; AA-stimulated, unstimulated 1.18±0.84): 7.05 ± 2.04 pg/mL

Compound: CCCCCCCCCCCCCC(=O)O[C@@H]1[C@@H](C)[C@@]2(O)[C@@H](C=C(CO)C[C@]3(O)C(=O)C(C)=C[C@@H]23)[C@@H]2C(C)(C)[C@]12OC(C)=O [PMA, phorbol 12-myristate 13-acetate]
- sgp91phox in supernatant of stimulated PMN [1]: 11.85 ± 3.23 pg/mL

Compound: CC(C)c1c(C(=O)Nc2ccccc2)c(-c2ccccc2)c(-c2ccc(F)cc2)n1CC[C@@H](O)C[C@@H](O)CC(=O)O [atorvastatin]
- variation in platelet gp91phox after treatment (platelet gp91phox): no significant variation
- serum total cholesterol ([2]; from 276±46 at baseline): 208 ± 38 mg/dL
- urinary isoprostanes levels ([2]; from 383±51 at baseline): 241±58 pg/mg of creatinine
- reduction in sgp91phox, ELISA with monoclonal antibody (SD-6311) (sgp91phox; [3]): −25%
- reduction in sgp91phox, ELISA with polyclonal antibody (sgp91phox; [3]): −33%
- sgp91phox serum level, ELISA with monoclonal antibody (SD-6311) (sgp91phox; end of 30 days atorvastatin, from 32.5±4.6 at baseline, p<0.001): 23.5 ± 6.5 pg/mL
- sgp91phox serum level, ELISA with polyclonal antibody (sgp91phox; end of 30 days atorvastatin, from 36.6±5.6 at baseline, p<0.001): 24.5 ± 7.7 pg/mL

Compound: lipopolysaccharide [LPS]
- sgp91phox in supernatant of stimulated lymphocytes/monocytes (lymphocytes/monocytes): 7.5 ± 2.64 pg/mL
